Measurements: patent publication US9688712B2, “Manufacturing method for polyphenol composition” (KAO CORPORATION, priority 2010, dated 2017)
Like-named read-outs stand apart in the source and are kept apart here. One block for each compound: values may come before it.

Tests used:
[1] = cited from earlier work
[2] = Measurement of log P value of the hardly water-soluble polyphenols (flask shaking method, JIS Z7260-107)
Experimental: The log P value is a common logarithm of the partition coefficient between 1-octanol, and water and an index indicative of a hydrophobicity of an organic compound. Larger positive log P value indicates larger hydrophobicity. […] The details are described in Examples.
[Measurement of Log P Value of the Hardly Water-Soluble Polyphenols]
First, 1-octanol and distilled water were shaken for 24 hours at 25° C. to equilibrate them. Then, 10 mg of polyphenol was weighed into a glass vial with a cap, into which each of 4 mL of the equilibrated 1-octanol and water was added. The vial was shaken for 4 days at 25° C. […] Log P value is a common logarithm of the partition coefficient between the two phases.

SMILES: COc1ccc([C@@H]2CC(=O)c3c(O)cc(O[C@@H]4O[C@H](CO[C@@H]5O[C@@H](C)[C@H](O)[C@@H](O)[C@H]5O)[C@@H](O)[C@H](O)[C@H]4O)cc3O2)cc1O [Hesperidin, hesperidin]
solubility in water at 25° C. [1]: 0.02 mg/g

SMILES: COc1cc(/C=C/C(=O)CC(=O)/C=C/c2ccc(O)c(OC)c2)ccc1O [curcumin]
logP at 4 days [2]: 3.29

logP at 4 days ([2]; 1-octanol/water): 3.08
SMILES: Oc1ccc(C=Cc2cc(O)cc(O)c2)cc1 [resveratrol]
